Data as given in ChEMBL document CHEMBL4270485, “Determination of Gymnemic Acid I as a Protein Biosynthesis Inhibitor Using Chemical Proteomics” (J Nat Prod, 2017).
Calls of active or inactive are those of the source. No cut-off for these calls is given here.

Legend:
[1] = target: T1, 80S Ribosome (Homo sapiens) (UniProt P08865+P42677+P62753+P15880+P23396+P61247+P62701+P22090+P46782+P62081+P62241+P46781+P46783+P62280+P25398+P62277+P62263+P62841+P62244+P62249+P08708+P62269+P39019+P60866+P63220+P62266+P62847+P62851+P62854+P62979+P62857+P62273+P62861+P39023+P36578+P46777+Q02878+P18124+P62424+P62917+P32969+P27635+P62906+P62913+P30050+P26373+P40429+P50914+P61313+P18621+Q07020+Q02543+P84098+P46778+P35268+P62829+P62750+P83731+P61254+P61353+P46776+P46779+P47914+P62888+P62899+P62910+P49207+P42766+P18077+Q9Y3U8+P83881+P61927+P61513+P63173+P62891+P62945+P05388+P05386); experiment: Binding affinity to 60S ribosomal protein L4 in human Hela cells lysates assessed as protein enrichment by measuring normalized heavy/light ratio at by nano-LC-ESIMS/MS analysis; format: cell-free
[2] = target: Actin, cytoplasmic 1 (Homo sapiens) (UniProt P60709); experiment: Binding affinity to actin, Cytoplasmic1 in human Hela cells lysates assessed as protein enrichment by measuring normalized heavy/light ratio at by nano-LC-ESIMS/MS analysis; format: cell-free
[3] = target: T1, 80S Ribosome (Homo sapiens); experiment: Binding affinity to 60S acidic ribosomal protein P0 in human Hela cells lysates assessed as protein enrichment by measuring normalized heavy/light ratio at by nano-LC-ESIMS/MS analysis; format: cell-free
[4] = target: T1, 80S Ribosome (Homo sapiens); experiment: Binding affinity to ribosomal protein S3 in human Hela cells lysates assessed as protein enrichment by Western blotting analysis; format: cell-free
[5] = target: Alkyldihydroxyacetonephosphate synthase, peroxisomal (Homo sapiens) (UniProt O00116); experiment: Binding affinity to alkyldihydroxyacetone phosphate synthase in human Hela cells lysates assessed as protein enrichment by measuring normalized heavy/light ratio at by nano-LC-ESIMS/MS analysis; format: cell-free
[6] = target: T1, 80S Ribosome (Homo sapiens); experiment: Binding affinity to 60S ribosomal protein L13 in human Hela cells lysates assessed as protein enrichment by measuring normalized heavy/light ratio at by nano-LC-ESIMS/MS analysis; format: cell-free
[7] = target: T1, 80S Ribosome (Homo sapiens); experiment: Binding affinity to 40S ribosomal protein S17 in human Hela cells lysates assessed as protein enrichment by measuring normalized heavy/light ratio at by nano-LC-ESIMS/MS analysis; format: cell-free
[8] = target: Elongation factor 1-alpha 1 (Homo sapiens) (UniProt P68104); experiment: Binding affinity to elongation factor 1-alpha 1 in human Hela cells lysates assessed as protein enrichment by measuring normalized heavy/light ratio at by nano-LC-ESIMS/MS analysis; format: cell-free
Oryctolagus cuniculus = species on record: Oryctolagus cuniculus; experiment: Inhibition of protein synthesis in rabbit reticulocytes pre-incubated for 30 mins before labeled-lysine-t-RNA and amino acid mixture addition and measured after 1 hr by luciferase reporter gene assay; format: functional, cell-based
[9] = target: Ras-related protein Rab-7a (Homo sapiens) (UniProt P51149); experiment: Binding affinity to ras-related protein rab-7a in human Hela cells lysates assessed as protein enrichment by measuring normalized heavy/light ratio at by nano-LC-ESIMS/MS analysis; format: cell-free
[10] = target: GTP-binding nuclear protein Ran (Homo sapiens) (UniProt P62826); experiment: Binding affinity to GTP-binding nuclear protein ran in human Hela cells lysates assessed as protein enrichment by measuring normalized heavy/light ratio at by nano-LC-ESIMS/MS analysis; format: cell-free
[11] = target: T1, 80S Ribosome (Homo sapiens); experiment: Binding affinity to 40S ribosomal protein S26 in human Hela cells lysates assessed as protein enrichment by measuring normalized heavy/light ratio at by nano-LC-ESIMS/MS analysis; format: cell-free
[12] = target: T1, 80S Ribosome (Homo sapiens); experiment: Binding affinity to 40S ribosomal protein S3a in human Hela cells lysates assessed as protein enrichment by measuring normalized heavy/light ratio at by nano-LC-ESIMS/MS analysis; format: cell-free
[13] = target: T1, 80S Ribosome (Homo sapiens); experiment: Binding affinity to 40S ribosomal protein S10 in human Hela cells lysates assessed as protein enrichment by measuring normalized heavy/light ratio at by nano-LC-ESIMS/MS analysis; format: cell-free
[14] = target: Pyruvate kinase PKM (Homo sapiens) (UniProt P14618); experiment: Binding affinity to pyruvate kinase isozymes M1/M2 in human Hela cells lysates assessed as protein enrichment by measuring normalized heavy/light ratio at by nano-LC-ESIMS/MS analysis; format: cell-free
[15] = target: L-lactate dehydrogenase A chain (Homo sapiens) (UniProt P00338); experiment: Binding affinity to L-lactate dehydrogenase A chain in human Hela cells lysates assessed as protein enrichment by measuring normalized heavy/light ratio at by nano-LC-ESIMS/MS analysis; format: cell-free
Homo sapiens = species on record: Homo sapiens; experiment: Binding affinity to histone H2A in human Hela cells lysates assessed as protein enrichment by measuring normalized heavy/light ratio at by nano-LC-ESIMS/MS analysis; format: cell-free
[16] = target: T1, 80S Ribosome (Homo sapiens); experiment: Binding affinity to 60S acidic ribosomal protein P1 in human Hela cells lysates assessed as protein enrichment by measuring normalized heavy/light ratio at by nano-LC-ESIMS/MS analysis; format: cell-free
[17] = Drug internalization in human HeLa cells at 1 uM by RP-HPLC-MS analysis; format: ADME, cell-based
[18] = target: Small ribosomal subunit protein eS27 (Homo sapiens) (UniProt P42677); experiment: Binding affinity to 40S ribosomal protein S27 in human Hela cells lysates assessed as protein enrichment by measuring normalized heavy/light ratio at by nano-LC-ESIMS/MS analysis; format: cell-free
[19] = target: Transketolase (Homo sapiens) (UniProt P29401); experiment: Binding affinity to transketolase in human Hela cells lysates assessed as protein enrichment by measuring normalized heavy/light ratio at by nano-LC-ESIMS/MS analysis; format: cell-free
[20] = target: T1, 80S Ribosome (Homo sapiens); experiment: Binding affinity to 60S ribosomal protein L15 in human Hela cells lysates assessed as protein enrichment by measuring normalized heavy/light ratio at by nano-LC-ESIMS/MS analysis; format: cell-free
[21] = target: T1, 80S Ribosome (Homo sapiens); experiment: Binding affinity to 40S ribosomal protein S18 in human Hela cells lysates assessed as protein enrichment by measuring normalized heavy/light ratio at by nano-LC-ESIMS/MS analysis; format: cell-free
[22] = target: T1, 80S Ribosome (Homo sapiens); experiment: Binding affinity to 40S ribosomal protein S3 in human Hela cells lysates assessed as protein enrichment by measuring normalized heavy/light ratio at by nano-LC-ESIMS/MS analysis; format: cell-free
[23] = target: Glyceraldehyde-3-phosphate dehydrogenase (Homo sapiens) (UniProt P04406); experiment: Binding affinity to glyceraldehyde-3-phosphate dehydrogenase in human Hela cells lysates assessed as protein enrichment by measuring normalized heavy/light ratio at by nano-LC-ESIMS/MS analysis; format: cell-free
[24] = target: Elongation factor 2 (Homo sapiens) (UniProt P13639); experiment: Binding affinity to eukaryotic translation initiation factor in human Hela cells lysates assessed as protein enrichment by measuring normalized heavy/light ratio at by nano-LC-ESIMS/MS analysis; format: cell-free
[25] = target: Alpha-enolase (Homo sapiens) (UniProt P06733); experiment: Binding affinity to alpha-enolase in human Hela cells lysates assessed as protein enrichment by measuring normalized heavy/light ratio at by nano-LC-ESIMS/MS analysis; format: cell-free
Alpha-enolase (Homo sapiens), sequence (P06733 whole entry): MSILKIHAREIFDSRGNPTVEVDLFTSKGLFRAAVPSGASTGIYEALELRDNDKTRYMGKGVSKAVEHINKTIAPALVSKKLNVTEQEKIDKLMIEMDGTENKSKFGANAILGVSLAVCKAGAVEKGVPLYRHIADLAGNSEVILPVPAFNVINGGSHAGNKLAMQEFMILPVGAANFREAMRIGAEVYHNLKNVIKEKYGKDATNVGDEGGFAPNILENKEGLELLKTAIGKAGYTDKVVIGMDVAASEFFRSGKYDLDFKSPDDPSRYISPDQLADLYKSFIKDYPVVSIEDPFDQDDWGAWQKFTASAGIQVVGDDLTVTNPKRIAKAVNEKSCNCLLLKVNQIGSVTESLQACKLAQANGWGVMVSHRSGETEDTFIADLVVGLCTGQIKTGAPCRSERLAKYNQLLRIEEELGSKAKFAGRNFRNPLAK

Ras-related protein Rab-7a (Homo sapiens), sequence (P51149 whole entry): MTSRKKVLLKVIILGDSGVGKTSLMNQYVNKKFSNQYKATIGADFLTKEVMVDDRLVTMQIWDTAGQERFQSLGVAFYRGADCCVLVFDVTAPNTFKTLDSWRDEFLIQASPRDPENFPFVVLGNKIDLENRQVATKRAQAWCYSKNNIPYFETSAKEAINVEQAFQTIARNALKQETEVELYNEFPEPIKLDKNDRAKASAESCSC
Pyruvate kinase PKM (Homo sapiens), sequence (P14618 2-531 limits assumed): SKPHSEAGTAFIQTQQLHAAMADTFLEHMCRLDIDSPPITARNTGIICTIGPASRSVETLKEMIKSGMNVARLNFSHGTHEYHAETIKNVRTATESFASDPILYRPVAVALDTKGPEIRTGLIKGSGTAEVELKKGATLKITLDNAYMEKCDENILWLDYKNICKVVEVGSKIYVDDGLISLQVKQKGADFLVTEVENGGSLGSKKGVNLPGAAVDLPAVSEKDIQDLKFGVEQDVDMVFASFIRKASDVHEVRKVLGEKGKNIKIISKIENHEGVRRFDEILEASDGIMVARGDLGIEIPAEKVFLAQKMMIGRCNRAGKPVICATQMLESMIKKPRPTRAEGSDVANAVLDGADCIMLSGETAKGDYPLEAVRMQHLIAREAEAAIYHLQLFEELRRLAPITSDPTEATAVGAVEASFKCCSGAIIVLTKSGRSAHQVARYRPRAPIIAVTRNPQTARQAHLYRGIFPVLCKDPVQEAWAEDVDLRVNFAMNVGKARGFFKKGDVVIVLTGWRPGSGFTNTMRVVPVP
Transketolase (Homo sapiens), sequence (P29401 whole entry): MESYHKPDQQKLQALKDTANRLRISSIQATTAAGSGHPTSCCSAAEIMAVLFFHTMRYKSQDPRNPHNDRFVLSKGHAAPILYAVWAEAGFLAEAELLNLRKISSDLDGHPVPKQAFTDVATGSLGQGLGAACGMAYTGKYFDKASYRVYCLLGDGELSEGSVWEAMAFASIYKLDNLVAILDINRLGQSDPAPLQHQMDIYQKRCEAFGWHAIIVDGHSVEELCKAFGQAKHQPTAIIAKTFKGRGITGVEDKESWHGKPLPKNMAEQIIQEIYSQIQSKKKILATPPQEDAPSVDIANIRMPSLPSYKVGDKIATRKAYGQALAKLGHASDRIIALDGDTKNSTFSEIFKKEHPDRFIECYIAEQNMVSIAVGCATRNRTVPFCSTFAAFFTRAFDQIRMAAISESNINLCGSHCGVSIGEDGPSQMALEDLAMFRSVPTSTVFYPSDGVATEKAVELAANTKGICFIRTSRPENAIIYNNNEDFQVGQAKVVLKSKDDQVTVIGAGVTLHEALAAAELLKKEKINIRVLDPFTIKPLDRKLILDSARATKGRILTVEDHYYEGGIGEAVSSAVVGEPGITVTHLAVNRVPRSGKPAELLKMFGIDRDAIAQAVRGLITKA
Glyceraldehyde-3-phosphate dehydrogenase (Homo sapiens), sequence (P04406 2-335 limits assumed): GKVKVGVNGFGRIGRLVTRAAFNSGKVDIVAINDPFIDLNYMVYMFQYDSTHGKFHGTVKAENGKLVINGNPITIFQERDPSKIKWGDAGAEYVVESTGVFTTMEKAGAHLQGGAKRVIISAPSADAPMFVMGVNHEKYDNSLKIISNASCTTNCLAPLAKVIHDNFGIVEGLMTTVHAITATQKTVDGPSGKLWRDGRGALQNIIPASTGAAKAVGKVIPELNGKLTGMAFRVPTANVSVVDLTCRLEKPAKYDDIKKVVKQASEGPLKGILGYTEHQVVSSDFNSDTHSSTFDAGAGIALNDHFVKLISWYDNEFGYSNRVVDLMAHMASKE
Alkyldihydroxyacetonephosphate synthase, peroxisomal (Homo sapiens), sequence (O00116 whole entry): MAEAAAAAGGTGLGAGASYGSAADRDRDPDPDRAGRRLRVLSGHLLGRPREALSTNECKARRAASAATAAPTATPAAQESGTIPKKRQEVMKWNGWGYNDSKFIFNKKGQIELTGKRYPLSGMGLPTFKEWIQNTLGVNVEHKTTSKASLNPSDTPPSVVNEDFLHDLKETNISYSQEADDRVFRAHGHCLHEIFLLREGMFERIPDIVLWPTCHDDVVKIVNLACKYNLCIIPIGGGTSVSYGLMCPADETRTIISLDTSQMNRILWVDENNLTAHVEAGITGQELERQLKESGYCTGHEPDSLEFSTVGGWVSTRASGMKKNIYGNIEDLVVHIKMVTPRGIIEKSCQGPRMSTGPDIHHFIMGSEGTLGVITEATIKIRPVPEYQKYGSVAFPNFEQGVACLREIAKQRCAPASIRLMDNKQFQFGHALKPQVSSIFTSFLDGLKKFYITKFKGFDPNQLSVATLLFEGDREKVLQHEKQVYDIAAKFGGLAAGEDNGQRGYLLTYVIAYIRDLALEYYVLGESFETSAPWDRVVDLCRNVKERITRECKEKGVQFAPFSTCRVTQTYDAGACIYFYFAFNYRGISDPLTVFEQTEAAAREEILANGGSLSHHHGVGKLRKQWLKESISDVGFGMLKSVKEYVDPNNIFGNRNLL
Elongation factor 1-alpha 1 (Homo sapiens), sequence (P68104 whole entry): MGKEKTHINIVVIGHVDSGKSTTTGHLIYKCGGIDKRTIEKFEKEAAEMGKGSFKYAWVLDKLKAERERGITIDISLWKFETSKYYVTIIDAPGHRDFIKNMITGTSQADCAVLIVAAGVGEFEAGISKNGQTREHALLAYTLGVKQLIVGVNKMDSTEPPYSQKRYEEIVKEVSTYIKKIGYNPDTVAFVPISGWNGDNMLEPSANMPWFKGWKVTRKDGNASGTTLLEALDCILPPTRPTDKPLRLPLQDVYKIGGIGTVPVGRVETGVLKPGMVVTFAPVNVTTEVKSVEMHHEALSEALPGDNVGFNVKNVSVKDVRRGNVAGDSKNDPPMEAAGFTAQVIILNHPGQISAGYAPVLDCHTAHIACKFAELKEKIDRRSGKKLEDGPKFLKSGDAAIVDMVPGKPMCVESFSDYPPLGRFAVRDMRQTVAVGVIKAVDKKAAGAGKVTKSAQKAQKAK

C/C=C(\C)C(=O)O[C@H]1[C@H](O)[C@]2(COC(C)=O)[C@@H](O)C[C@]3(C)C(=CC[C@@H]4[C@@]5(C)CC[C@H](O[C@@H]6O[C@H](C(=O)O)[C@@H](O)[C@H](O)[C@H]6O)[C@@](C)(CO)[C@@H]5CC[C@]43C)[C@@H]2CC1(C)C gave a Ratio [1] of 0.396, a Ratio [2] of 0.436 and a Ratio [3] of 0.245. For the same compound, the Activity [4] was “Active”, the Ratio [5] was 0.955 and the Ratio [6] was 0.332. For the same compound, the Ratio [7] was 0.069, the Ratio [8] was 0.629 and the inhibition (Oryctolagus cuniculus) was “Dose-dependent effect”. For the same compound, the Ratio [9] was 0.568, the Ratio [10] was 1.53 and the Ratio [11] was 0.158. For the same compound, the Ratio [12] was 0.238, the Ratio [13] was 0.39 and the Ratio [14] was 0.899. For the same compound, the Ratio [15] was 0.48, the Ratio (Homo sapiens) was 0.509 and the Ratio [16] was 0.27. For the same compound, the Drug uptake [17] was 4%, the Ratio [18] was 0.418 and the Ratio [19] was 0.623. For the same compound, the Ratio [20] was 0.818, the Ratio [21] was 0.448 and the Ratio [22] was 0.269. It also gave a Ratio [23] of 0.524, a Ratio [24] of 0.795 and a Ratio [25] of 0.811.
